{
  "source": "patent US8728472B2",
  "about": "“Antibodies that bind selectively to P25 and uses therefor” (The Board of Regents of the University of Texas System, priority 2009, dated 2014)",
  "key": {"D1 dopamine receptor": {"molecular_target": "T1, D1 dopamine receptor (Mus musculus, UniProt Q61616)", "T1 construct": "from tissue; host or cells: acute mouse striatal slices", "T1 sequence (Q61616 whole entry)": "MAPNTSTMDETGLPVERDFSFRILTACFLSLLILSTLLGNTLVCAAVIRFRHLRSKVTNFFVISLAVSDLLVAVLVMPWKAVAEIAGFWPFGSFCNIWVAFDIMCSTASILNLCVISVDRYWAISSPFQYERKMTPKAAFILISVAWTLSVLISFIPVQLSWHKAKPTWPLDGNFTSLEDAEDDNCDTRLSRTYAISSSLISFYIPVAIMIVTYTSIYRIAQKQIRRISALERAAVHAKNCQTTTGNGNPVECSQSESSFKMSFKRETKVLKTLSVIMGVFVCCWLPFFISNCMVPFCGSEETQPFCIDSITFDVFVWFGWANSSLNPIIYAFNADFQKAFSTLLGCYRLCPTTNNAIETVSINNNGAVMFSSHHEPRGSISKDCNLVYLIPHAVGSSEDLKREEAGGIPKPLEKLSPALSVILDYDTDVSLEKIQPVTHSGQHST", "assay": "D1 agonist-induced PKA-dependent phosphorylation in striatal slices", "type": "cell-based", "procedure": "Homogenates were prepared from rapidly dissected tissue or striatal slices using standard methodology (Nishi et al., 1997)."}, "calpain": {"test_system": "calpain", "conditions": "preincubation 20 μM, 1 h, striatal slices", "procedure": "Acutely prepared coronal slices were prepared as described (Nishi et al., 1997). For OGD, slices were switched from Kreb's buffer bubbled in 95% O2/5% CO2 to 100% N2 and glucose was replaced by 10 mM sucrose for indicated periods (Sahin et al., 2008; Sahin et al., 2007). […] Homogenates were prepared from rapidly dissected tissue or striatal slices using standard methodology (Nishi et al., 1997). […] For immunostaining of cultured cells, rat primary striatal neuron cultures were prepared, subjected to control or OGD conditions, fixed and stained as described (Meyer et al., 2008)."}, "[1]": {"test_system": "coronal mouse brain slices", "assay": "TTC viability staining of coronal brain slices subjected to OGD", "type": "cell-based", "conditions": "for neuroprotective effect against OGD-induced neuronal death / viability (TTC staining) after 60 min OGD: incubation 1 h prior to and during OGD; for viability (TTC staining) after 60 min OGD: 60 min without oxygen and glucose", "protocol": "(§1) Slices were treated with SKF81297 (1 μM, 10 min), calpain inhibitor 3, calpeptin (20 μM, 1 h), Ca^2+-free Krebs (1 h), and Indo A or B (1 h) at indicated concentrations. See Methods.\n(§2) Abs to p35, DARPP-32 (Nishi et al., 1997), GFAP, and p25 were used to stain rat coronal cryosections (20 μm) from control and stroked hemispheres. […] See Methods for further details.\nHaving established this pharmacological approach, the effect of OGD on neuronal viability was next quantitatively assessed by 2, 3, 5-triphenyltetrazolium chloride (TTC) staining (Bederson et al., 1986) (FIGS. 8E and 8F). TTC staining was readily observed in coronal mouse brain slices oxygenated in Kreb's buffer for 1 h. OGD induced time-dependent neuronal death with TTC staining reduced to 60.8±2.1 and 0.6±7.9% of control levels by exposure to ischemic conditions for 30 and 60 min, respectively."}, "Cdk5": {"molecular_target": "T2, Cdk5 (Mus musculus, UniProt P49615)", "T2 construct": "from tissue; host or cells: acute striatal slices", "T2 sequence (P49615 whole entry)": "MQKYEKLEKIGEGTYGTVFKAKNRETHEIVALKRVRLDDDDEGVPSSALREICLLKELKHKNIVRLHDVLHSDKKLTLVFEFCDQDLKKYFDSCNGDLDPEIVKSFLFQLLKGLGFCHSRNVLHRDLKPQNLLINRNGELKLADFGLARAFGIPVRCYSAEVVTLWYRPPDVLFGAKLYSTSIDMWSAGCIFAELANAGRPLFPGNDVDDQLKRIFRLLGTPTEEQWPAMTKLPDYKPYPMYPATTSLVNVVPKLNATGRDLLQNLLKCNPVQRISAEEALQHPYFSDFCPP", "T2 sequence (P61809 2-307 partner limits assumed)": "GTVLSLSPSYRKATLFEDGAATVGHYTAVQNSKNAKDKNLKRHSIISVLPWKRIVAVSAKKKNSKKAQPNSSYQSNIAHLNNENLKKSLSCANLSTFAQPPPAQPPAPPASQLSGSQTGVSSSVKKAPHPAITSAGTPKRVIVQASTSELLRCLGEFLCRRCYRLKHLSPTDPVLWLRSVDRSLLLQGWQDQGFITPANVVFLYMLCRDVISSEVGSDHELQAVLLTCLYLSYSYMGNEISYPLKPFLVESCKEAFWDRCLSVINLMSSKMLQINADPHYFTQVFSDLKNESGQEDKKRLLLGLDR", "assay": "Cdk5 inhibition in striatal slices by blotting phospho-Thr75 DARPP-32", "type": "cell-based", "protocol": "as §1, §2\nTo assess the deleterious effects of aberrantly active Cdk5/p25, the selective and potent Cdk5 inhibitor, indolinone A (Gillardon et al., 2005) (Indo A) was employed. First, its ability to inhibit Cdk5 in striatal slices was assessed by treating striatal slices with various concentrations (1-10 μM) of Indo A and blotting the lysates for the defined Cdk5 site, phospho-Thr75 DARPP-32 (Bibb et al., 1999). […] In contrast the congener Indolinone B, which is limited in specificity to Cdk4 (Weishaupt et al., 2003), had no effect on Cdk5-dependent phosphorylation of DARPP-32."}, "[2]": {"test_system": "striatal projecting spiny neurons", "assay": "Electrophysiological recordings (EPSP, membrane potential, field potential) in corticostriatal slices under OGD", "type": "cell-based", "conditions": "pre-treatment", "from_the_text": "Electrophysiological recordings of FPs and single unit activity were taken from slices under physiological and OGD conditions using described methodology (Calabresi et al., 1998; Picconi et al., 2003; Costa et al., 2006).\nTo better understand the physiological effects of shorter periods of ischemia, a neurophysiological approach was utilized. Sharp microelectrode intracellular recordings were obtained from striatal projecting spiny neurons identified according to their electrophysiological characteristics (Calabresi et al., 1998). In these neurons, a very brief period (2-3 min) of OGD induced loss of membrane potential (FIGS. 10A-B) and a transient suppression of the excitatory post-synaptic potential (EPSP) followed by a long-term increase in the EPSP amplitude in comparison to the pre-ischemic period (139.7±10.3%, n=5, p<0.05, FIG. 10C). This long-term increase of the glutamatergic transmission at corticostriatal synapses, called post-ischemic LTP (i-LTP), represents a pathological form of synaptic plasticity occurring after brain ischemia (Calabresi et al., 2003; Calabresi et al., 1998; Calabresi et al., 2002). […] Extracellular field potential (FP) recordings were also obtained from corticostriatal slices. In control conditions, 10 min of OGD caused an irreversible loss of FP (FIGS. 10E-F)."}},
  "note": "Residues, ends and D or L forms follow the SMILES beside them. *: point of attachment. Cbz = O=C(OCc1ccccc1)*",
  "data": [
    {"compound": "Oc1cc2c(c(Cl)c1O)CCNCC2c1ccccc1", "note": "(centres unmarked) [SKF81297]", "values": [
      {"measurement": "increase in phospho-Ser845 GluR1", "setting": "D1 dopamine receptor; oxygenated slices, 1 μM, 5 min", "result": "2.0±0.1", "unit": "fold"},
      {"measurement": "increase in phospho-Thr34 DARPP-32", "setting": "D1 dopamine receptor; oxygenated slices, 1 μM, 5 min", "result": "3.6±0.3", "unit": "fold"}
    ]},
    {"compound": "CC(C)[C@H](NC(=O)OCc1ccccc1)C(=O)N[C@H](C=O)Cc1ccccc1", "note": "[calpain inhibitor 3] (Cbz-Val-Phe-aldehyde)", "values": [
      {"measurement": "OGD-dependent p25 generation", "setting": "calpain", "result": "prevented p25 generation"}
    ]},
    {"compound": "CCCC[C@@H](C=O)NC(=O)[C@H](CC(C)C)NC(=O)OCc1ccccc1", "note": "[calpeptin]", "values": [
      {"measurement": "TTC staining intensity relative to 60 min OGD without inhibitor", "setting": "[1]", "result": "111.3±6.0", "unit": "fold"},
      {"measurement": "neuroprotective effect against OGD-induced neuronal death", "setting": "[1]", "result": "significantly blocked neuronal death"},
      {"measurement": "viability (TTC staining) after 60 min OGD", "setting": "[1]", "result": "69.6±6.6 % of control levels"},
      {"measurement": "OGD-dependent p25 generation", "setting": "calpain", "result": "prevented p25 generation"}
    ]},
    {"compound": "Indolinone B [Indo B]", "values": [
      {"measurement": "effect on Cdk5-dependent phosphorylation of DARPP-32", "setting": "Cdk5", "result": "had no effect"},
      {"measurement": "neuroprotective effect against OGD-induced neuronal death", "setting": "[1]", "result": "no such neuroprotective effect"}
    ]},
    {"compound": "indolinone A [Indo A]", "values": [
      {"measurement": "phospho-Thr75 DARPP-32, reduction to % of basal levels", "setting": "Cdk5; 5 μM", "result": "26±8 % of basal levels"},
      {"measurement": "IC50", "setting": "Cdk5; 1-10 μM, 1 h", "result": 0.29, "unit": "µM"},
      {"measurement": "induction of i-LTP at corticostriatal synapses", "setting": "[2]; 3 min OGD, n=5", "result": "completely blocked the induction of i-LTP"},
      {"measurement": "loss of field potential (FP) induced by ischemia", "setting": "[2]; 10 min OGD", "result": "significantly reduced the loss of FP"},
      {"measurement": "TTC staining intensity relative to 60 min OGD without inhibitor", "setting": "[1]", "result": "95.5±9.6", "unit": "fold"},
      {"measurement": "neuroprotective effect against OGD-induced neuronal death", "setting": "[1]", "result": "significantly blocked neuronal death"},
      {"measurement": "viability (TTC staining) after 60 min OGD", "setting": "[1]", "result": "59.7±6.0 % of control levels"},
      {"measurement": "increase in phospho-Ser845 in response to SKF81297 after 10 min of ischemia", "setting": "D1 dopamine receptor; preincubation with Indo A 10 μM, 1 h, 10 min OGD/10 min reperfusion", "result": "4.7±1.2", "unit": "fold"}
    ]}
  ]
}
